For 16 compounds, IC50 results are on record in BindingDB's records for patent US20250051327 (Exscientia AI, 2025).

The experiment concerns the target T1, Mucosa-associated lymphoid tissue lymphoma translocation protein 1 (Homo sapiens, UniProt Q9UDY8).
T1 sequence (Q9UDY8 whole entry): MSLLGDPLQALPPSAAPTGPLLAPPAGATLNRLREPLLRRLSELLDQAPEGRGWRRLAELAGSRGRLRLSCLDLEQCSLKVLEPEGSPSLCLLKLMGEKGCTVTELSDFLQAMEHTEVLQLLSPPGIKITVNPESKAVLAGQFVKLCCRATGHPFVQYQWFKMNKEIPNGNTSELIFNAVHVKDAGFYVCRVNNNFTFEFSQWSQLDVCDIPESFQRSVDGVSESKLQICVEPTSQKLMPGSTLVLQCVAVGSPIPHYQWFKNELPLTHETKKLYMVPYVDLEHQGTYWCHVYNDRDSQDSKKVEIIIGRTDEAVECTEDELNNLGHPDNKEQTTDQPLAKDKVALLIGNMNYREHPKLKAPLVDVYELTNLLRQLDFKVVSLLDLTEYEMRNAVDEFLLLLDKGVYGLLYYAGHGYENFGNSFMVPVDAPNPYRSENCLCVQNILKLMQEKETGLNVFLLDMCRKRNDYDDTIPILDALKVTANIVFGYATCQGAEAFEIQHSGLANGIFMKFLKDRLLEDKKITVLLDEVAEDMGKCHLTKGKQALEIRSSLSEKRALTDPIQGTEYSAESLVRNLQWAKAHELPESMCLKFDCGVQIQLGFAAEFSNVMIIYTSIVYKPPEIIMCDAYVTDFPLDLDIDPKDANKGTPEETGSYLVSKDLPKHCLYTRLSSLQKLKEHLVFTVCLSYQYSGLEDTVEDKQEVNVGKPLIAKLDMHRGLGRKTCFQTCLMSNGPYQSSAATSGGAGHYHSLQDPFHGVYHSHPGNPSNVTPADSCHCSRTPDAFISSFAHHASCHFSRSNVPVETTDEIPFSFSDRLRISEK
Briefly: MALT-1 Inhibition Assay. Here is the method:
MALT-1 paracaspase activity was measured using the fluorogenic substrate Ac-LRSR-Rh110-DP (purchased from Biosantan GmbH). Proteolytic cleavage of the peptide—rhodamine conjugate results in an increase of rhodamine fluorescence which is inhibited by test compounds. Test compounds were diluted in DMSO in a series of 10 semi-log step doses, 15 nL of each compound dose were dispensed in 384 well polypropylene plates (HiBase non-binding, Greiner Bio-One cat #784900). All other assay components were diluted to appropriate working concentrations in assay buffer composed of: 200 mM Tris-HCl (pH 7.5; Sigma-Aldrich cat #T2663-1L), 0.1 mM EGTA (Sigma-Aldrich cat #E3889-10G), 0.05% CHAPS—Sigma-Aldrich cat #C9426-1G), 1 mM TCEP (Sigma-Aldrich cat #646547-10×1 mL), 0.8 M sodium citrate (Sigma-Aldrich cat #S1804-500G). Recombinant human MALT-1 (amino acids 340-824, accession NP_006776.1) was added to compound doses and equilibrated for 40 minutes at rt. The reaction was initiated by addition of substrate. Final concentrations of MALT-1 and substrate were 3 nM and 10 μM respectively. Reactions were incubated in the dark for 60 minutes at 25° C. Fluorescence was measured in a PHERAstar FSX plate reader (BMG LABTECH) with optical setup for excitation at 485 nm and emission at 520 nm, focal height of 11.8 mm, 20 flashes, gain 300. Percent inhibition values were calculated from relative fluorescence units at different doses and fitted to a 4-parameter logistic curve to determine IC50 values.
On to `COc1ccc2ncc(Nc3ccc([C@H](N(C)C(=O)C4CCS(=O)(=O)CC4)C(F)(F)F)cn3)c([C@@H](C)OC)c2n1` (relative stereo) [US20250051327, Reference CPD0019006], for which the IC50 is 139 nM. Compound `COc1ccc2ncc(Nc3ccc([C@H](N(C)C(=O)C4CCS(=O)(=O)CC4)C(F)(F)F)cc3)c([C@H](C)OC)c2n1` (relative stereo) [US20250051327, Reference CPD0019170] gave an IC50 of 65 nM. The result for `COc1ccc2ncc(Nc3ccc([C@H](N(C)C(=O)C4CCS(=O)(=O)CC4)C(F)(F)F)cc3)c([C@@H](C)OC)c2n1` (relative stereo) [US20250051327, Reference CPD0019171] reads 196 nM. The result for `COc1ccc2ncc(Nc3ccc([C@H](N(C)C(=O)[C@H]4CC[S@@+]([O-])CC4)C(F)(F)F)cc3)c([C@H](C)OC)c2n1` (relative stereo) [US20250051327, Reference CPD0072935] reads 75 nM. As to `COc1ccc2ncc(Nc3ccc([C@H](N(C)C(=O)[C@H]4CC[S@+]([O-])CC4)C(F)(F)F)cc3)c([C@H](C)OC)c2n1` (relative stereo) [US20250051327, Reference CPD0072936], the 50% inhibitory concentration (IC50) was 68 nM.

In turn, `COc1ccc2ncc(Nc3ccc([C@H](N(C)C(=O)C4CCS(=O)(=O)CC4)C(F)(F)F)cc3)c([C@H]3CCCO3)c2n1` (relative stereo) [US20250051327, Reference CPD0074043] registered a half-maximal inhibitory concentration (IC50) of 107 nM.

In turn, `COc1ccc2ncc(Nc3ccc([C@H](N(C)C(=O)C4CCS(=O)(=O)CC4)C(F)(F)F)cc3)c([C@@H]3CCCO3)c2n1` (relative stereo) [US20250051327, Reference CPD0074044] came in with a 50% inhibitory concentration (IC50) of 218 nM. As to `COc1ccc2ncc(Nc3ccc([C@H](N(C)C(=O)[C@@H]4CNC(=O)C4)C(F)(F)F)cc3)c([C@H](C)OC)c2n1` (relative stereo) [US20250051327, Reference CPD0074550], the IC50 was 81 nM.

As to `C[C@H]1CCN(c2ccc([C@H](N(C)C(=O)[C@H]3CC[S@](=N)(=O)CC3)C(F)(F)F)cc2)c2cnc3cc(F)nn3c21` (relative stereo) [US20250051327, Reference CPD0074553], half-maximal inhibition (IC50) required 39 nM. `C[C@H]1CCN(c2ccc([C@H](N(C)C(=O)[C@H]3CC[S@@](=N)(=O)CC3)C(F)(F)F)cc2)c2cnc3cc(F)nn3c21` (relative stereo) [US20250051327, Reference CPD0074554] showed an IC50 of 44 nM. The figure for `COc1ccc2ncc(Nc3ccc([C@H](N(C)C(=O)C4CCN(C(C)=O)CC4)C(F)(F)F)cc3)c([C@H](C)OC)c2n1` (relative stereo) [US20250051327, Reference CPD0074559] is 153 nM; for `COc1ccc2ncc(Nc3ccc([C@H](N(C)C(=O)[C@H]4CNC(=O)C4)C(F)(F)F)cc3)c([C@H](C)OC)c2n1` (relative stereo) [US20250051327, Reference CPD0074562] it is 79 nM. `COc1ccc2ncc(Nc3ccc([C@H](N(C)C(=O)[C@@H]4CCC(=O)N4)C(F)(F)F)cc3)c([C@H](C)OC)c2n1` (relative stereo) [US20250051327, Reference CPD0075580]: the half-inhibitory concentration (IC50) came out at 47 nM.

In turn, `COc1ccc2ncc(Nc3ccc([C@H](N(C)C(=O)[C@H]4CCC(=O)N4)C(F)(F)F)cc3)c([C@H](C)OC)c2n1` (relative stereo) [US20250051327, Reference CPD0075581] gave a half-inhibitory concentration (IC50) of 37 nM. The figure for `CO[C@@H](C)c1c(Nc2ccc([C@H](N(C)C(=O)[C@H]3CNC(=O)C3)C(F)(F)F)cc2)cnn2cc(Cl)nc12` (relative stereo) [US20250051327, Reference CPD0082467] is 42 nM; for `CO[C@@H](C)c1c(Nc2ccc([C@H](N(C)C(=O)[C@H]3CCC(=O)NC3)C(F)(F)F)cc2)cnn2cc(Cl)nc12` (relative stereo) [US20250051327, Reference CPD0082471] it is 37 nM.

The IC50 is the concentration needed to halve the response being measured. Lower therefore signals inhibition by little substance.
